# Where two headings read alike, the source gives them in different places.
# Tests used:
# [1] = tested on: Rasamsonia argillacea species complex; assay: Antifungal susceptibility testing; format: cell-based; conditions: sputum isolate of a CF patient
# [2] = tested on: C. auris isolates; assay: AmB Etest; format: cell-based, Candida auris; conditions: for MIC: Candidozyma auris
# Protocol: Methods: A total of 313 C. auris isolates representing five geographic clades (I—South Asian; II—East Asian; III—South African; IV—South American; V—Iranian) were investigated in this study. Antifungal susceptibility testing (AFST) with AmB was performed with Etest according to the manufacturer instructions. […] Ergosterol biosynthesis pathway genes ERG2 (C-8 sterol isomerase), ERG3 (C-5 sterol desaturase), ERG6 (sterol 24-C-methyltransferase), and ERG11 (lanosterol 14-α-demethylase) were amplified and sequenced. […] AmB susceptibility was then determined for the transformed strain.
# [3] = tested on: C. parapsilosis; assay: Candidemia Netherlands, MIC distributions against EUCAST ECOFF; format: cell-based, Candida parapsilosis
# [4] = tested on: Cryptococcal isolates; assay: CLSI broth micro dilution; format: cell-based, Cryptococcus neoformans, C. gattii
# [5] = tested on: C. glabrata; assay: Candidemia Netherlands, MIC distributions against EUCAST ECOFF; format: cell-based, Candida glabrata
# [6] = tested on: C. auris III.8 and TAC1/MRR1 deletion strains; format: cell-based, Candida auris
# [7] = tested on: Candida auris isolates; assay: Disc diffusion, Oxoid discs; format: cell-based; conditions: 25 µg FLU and 5 µg CAS discs; […]
# [8] = tested on: Candida catenulata; assay: CLSI M44 agar diffusion; format: cell-based
# [9] = tested on: environmental yeasts from a lagoon; assay: organism not typed; format: cell-based
# [10] = tested on: McLDM-F5-CPR; assay: microbe, parasite or virus in culture; format: cell-based, Saccharomyces cerevisiae AD2Δgal; conditions: Saccharomyces cerevisiae, read-out: mean MIC
# [11] = tested on: C. albicans; assay: In vitro fluconazole susceptibility, neonatal invasive candidiasis; format: cell-based, Candida albicans
# [12] = tested on: A. fumigatus veterinary isolates; assay: EUCAST microdilution of veterinary isolates; format: cell-based, Aspergillus fumigatus
# Protocol: All have been confirmed as A. fumigatus by MALDI-TOF MS using the BCCM/IHEM database. The antifungal susceptibility was evaluated using the microdilution EUCAST method. Cyp51A gene sequencing has been performed on all resistant isolates.
# [13] = tested on: A. flavus complex; conditions: n = 6, EUCAST clinical breakpoints
# [14] = Triazole drug levels in ABPA patients with asthma; format: in vivo, human; conditions: 452 patients, Oct 2009 to March 2021
# From the text: Materials & Methods: This was a retrospective single-centre cohort study evaluating longitudinal outcomes in non-cystic fibrosis (CF) ABPA patients with underlying chronic lung disease (asthma), and description of treatment approaches. Statistical Analysis System (SAS) programming was used for data integration from multiple hospital electronic systems, for patient identification and data analysis. Criteria for inclusion were patients with a background of asthma, serum Total IgE >1000 IU/mL and a positive Aspergillus IgE, with or without a positive culture for A. fumigatus from a respiratory sample. Data collected included demographics, lung function severity, disease activity serological markers (Aspergillus IgE, Aspergillus IgG, Total IgE) and triazole levels. In this study the impact of fungal therapy on disease outcomes was assessed.
# [15] = tested on: A. fumigatus strains; assay: EUCAST E.DEF 9.3.2 broth microdilution; format: cell-based, Aspergillus fumigatus; set-up: MIC Range: unit not given beside the values; MIC50 / MIC90: unit not given here
# Protocol: Methods: The research was conducted on 29 A. fumigatus strains. Minimum inhibitory concentrations (MIC) were detected by broth microdilution method (BM) following EUCAST definitive document E.DEF 9.3.2 and E-test in accordance with manufacturer instructions.
# [16] = tested on: Aspergillus tubingensis; assay: EUCAST susceptibility; format: cell-based; conditions: read-out: MIC
# Protocol: The fungus was identified as Aspergillus niger and liposomal amphotericine B was switched to anidulafungin pending susceptibility testing as the patient had pre-existing […] (eGFR CKD-EPI 40 mL/min/1.73 m²). […] Despite increasing the anidulafungin dosage to 200 mg daily and adequate voriconazol levels, serum galactomannan levels remained elevated (index 2.1 at discharge). […] Since no extracardiac sources were found and the patient did well clinically, they were discharched. Anidulafungin was switched to caspofungin to facilitate ongoing IV treatment in the outpatient setting. […] The patient died shortly after. Obduction was not performed.
# [17] = tested on: Asp. niger; assay: Triazole resistance agar screening, four-well plate; conditions: RPMI agar, 1 µg/mL, 14 isolates
# Protocol: All the isolates were identified phenotypically. […] Fungal spores were suspended in normal saline (0.85%) and adjusted to 0.5 McFarland and 50 μL was plated in each well. […] Plates were incubated at 35–37 °C for 72 h in ambient air. The presence or absence of growth was observed visually at 24 h, 48 h, and 72 h.
# [18] = Therapeutic drug monitoring of VRC plasma levels; format: in vivo, human
# Protocol: Materials & Methods: Patients are aged over 18 years and given antifungal therapy between January 2019–November 2020 in the Hacettepe University Hospitals were included. The study was approved by the University Clinical Research Ethics Committee. Demographics and antifungal treatment periods of the patients were analyzed retrospectively. As of January 2020, VRC plasma levels had started to be analyzed on a weekly basis in the study setting. Plasma VRC levels (target range: 1–5.5 mg/L) were measured by using liquid chromatography—triple quadrupole mass spectrometer (Shimadzu LCMS-8040). The impact of TDM on appropriateness of VRC treatment were evaluated by the numbers of treatment switch and the use of oral route.
# [19] = III.8 tac1a/tac1b strain vs parental
# [20] = III.8 tac1a/tac1b/mrr1 strain vs parental
SMILES,minimal inhibitory concentrations (MIC) [1],isolates within the wildtype distribution range [3] [%],MIC50 [4] [µg/mL],MIC90 [4] [µg/mL],isolates within the wildtype distribution range [5] [%],MIC decrease ([6]; III.8 mrr1 strain vs parental) [fold],"MIC decrease [6, 19] [fold]",MIC ([6]; III.8 tac1a/tac1b/mrr1 strain) [µg/mL],"MIC decrease [6, 20] [fold]",MIC ([6]; parental III.8 isolate) [µg/mL],MIC [10] [µg/mL],median trough drug level [14] [mg/L],MIC50 ([15]; 28 h),MIC90 ([15]; 28 h),"MIC Range ([15]; 28 h, 29 strains)",MIC50 ([15]; 48 h),MIC90 ([15]; 48 h),MIC Range ([15]; 48 h),further results
C[C@@H]1[C@H](O)[C@@H](C)/C=C/C=C/C=C/C=C/C=C/C=C/C=C/[C@H](O[C@@H]2O[C@H](C)[C@@H](O)[C@H](N)[C@@H]2O)C[C@@H]2O[C@](O)(C[C@@H](O)C[C@@H](O)[C@H](O)CC[C@@H](O)C[C@@H](O)CC(=O)O[C@H]1C)C[C@H](O)[C@H]2C(=O)O [amphotericin B],high minimal inhibitory concentrations,92.9,0.25,0.5,98.6,–,–,–,–,–,–,–,–,–,–,–,–,–,"isolates with AmB MIC values ≥2 mg/L ([2]; 19 of 313 isolates): 6.1%; MIC ([2]; read-out: AmB MIC, South African isolate SA18, ERG6 missing base pairs 52–543): 6 µg/mL; MIC ([2]; read-out: AmB MIC, susceptible strain after replacement with ERG6 of SA18): > 32 µg/mL; MIC ([2]; read-out: AmB MIC, susceptible strain with wild-type ERG6): 0.5 µg/mL"
OC(Cn1cncn1)(Cn1cncn1)c1ccc(F)cc1F [fluconazole],–,92.5,1,4,83.6,2,2,128,4,512,128,–,–,–,–,–,–,–,"median zone diameter (ZD) [7]: 0 mm; resistant isolates ([8]; […], discs 25 μg fluconazole, 1 μg voriconazole): 19%; isolates classified as resistant-like ([9]; number of 71 yeasts, MIC at or above Candida breakpoint): Fifty-five; MIC ([9]; range, read-out: MIC of resistant-like isolates): 64 to 2050 µg/mL; dose-dependent susceptible pathogens [11]: 0%; in vitro resistant pathogens [11]: 7%"
CCC(C)n1ncn(-c2ccc(N3CCN(c4ccc(OCC5COC(Cn6cncn6)(c6ccc(Cl)cc6Cl)O5)cc4)CC3)cc2)c1=O (stereo not drawn) [itraconazole],–,–,–,–,–,–,–,–,–,–,–,0.76,0.5,0.5,0.5–8,0.5,1,0.5–16,isolates with values equal to the clinical breakpoint [12]: 33%; resistance of isolates [12]: No resistance; isolates resistant [13]: 17%
C[C@@H](c1ncncc1F)[C@](O)(Cn1cncn1)c1ccc(F)cc1F [voriconazole],high minimal inhibitory concentrations,–,–,–,–,2,2,0.5,4,2,4,0.82,0.5,1,0.25–4,1,2,0.25–8,"MIC [16]: 1 µg/mL; isolates in the area of technical uncertainty (ATU) [12]: 47%; isolates with growth only in voriconazole well, n (%) ([17]; 48 h): 0; isolates with growth only in voriconazole well, n (%) ([17]; 72 h): 2 (14.28); MIC ([6]; III.8 tac1a/tac1b strain): 1 µg/mL; resistant isolates [8]: 19%; median plasma level (range) ([18]; 88 levels in 34 patients, LC-MS): 4.2 (0.2–18.1) mg/L; Adverse effects, n (%) ([18]; Subtherapeutic (<1 mg/L)): 0 (0.0); Adverse effects, n (%) ([18]; Supratherapeutic (>5.5 mg/L)): 4 (13.8); Adverse effects, n (%) ([18]; Therapeutic (1–5.5 mg/L)): 0 (0.0); VRC-related adverse effects ([18]; all at supratherapeutic levels): Four; plasma levels at subtherapeutic range (<1 mg/L), n (%) ([18]; n = 88): 14 (15.9%); plasma levels at supratherapeutic range (>5.5 mg/L), n (%) ([18]; n = 88): 29 (33.0%); plasma levels at therapeutic range (1–5.5 mg/L), n (%) ([18]; n = 88): 45 (51.1%)"
